Test results: patent US20260102451A1, “RUMINANT METHANE PRODUCTION INHIBITOR” (SDS BIOTECH K.K., priority 2022, published 2026)

Assays:
Assay type in all cases: cell-based, Holstein milking cows
rumen fluid culture [1] = experiment: Methane production measurement system using rumen culture (Example 1); conditions: for methane amount (mean ± SD): 39° C., 17 hours
Description: Cashew nut shell liquid (CNSL) cold-pressed and extracted from cashew nut shells was obtained. For culture inoculum, rumen fluids (filtrates through quadruple gauzes) collected orally from Holstein milking cows 90 days or longer after calving were used. 4 mL of the rumen fluid and 6 mL of artificial saliva (McDougal's artificial saliva) were added, and the mixture was used for culturing. […] Similarly, DL-malic acid and fumaric acid were dissolved in ethanol and added such that they had desired concentrations in the solution. To equalize the effect of ethanol, only ethanol was added to a no-addition (control) area. Thereafter, the resulting products were left for several hours to vaporize ethanol, to which 50 mg of corn starch, 75 mg of concentrate feed powder, and 75 mg of timothy hay powder were added as culture substrates. […] To these test tubes, a total of 10 ml of diluted rumen fluid and artificial saliva in the above mixture ratio was added, and the tubes were incubated anaerobically in an incubator (39° C., 17 hours) with butyl rubber caps and plastic screw caps provided while nitrogen gas was blown into the head space. Each culturing was performed in triplicate. The concentrations of methane and acetic acid in volatile fatty acids were both analyzed by FID gas chromatography.

rumen fluid culture [2] = experiment: Methane production measurement system using rumen culture (Example 3); conditions: for methane amount (mean ± SD): 39° C., 17 hours; for methane amount % reduction vs cont: ^ = increase
Description: Cashew nut shell liquid (CNSL) cold-pressed and extracted from cashew nut shells was obtained. For culture inoculum, rumen fluids (filtrates through quadruple gauzes) collected orally from Holstein milking cows 90 days or longer after calving were used. 4 mL of the rumen fluid and 6 mL of artificial saliva (McDougal's artificial saliva) were added and the mixture was used for culturing. […] CNSL was dissolved in ethanol and added to a Hungate tube such that it had any concentration in the solution. […] To equalize the effect of ethanol, only ethanol was added to a no-addition (control) area. […] To these test tubes, a total of 10 mL of diluted rumen fluid and artificial saliva in the above mixture ratio was added, and the tubes were incubated anaerobically in an incubator (39° C., 17 hours) with butyl rubber caps and plastic screw caps provided while nitrogen gas was blown into the head space. Each culturing was performed in triplicate. The concentrations of methane and acetic acid in volatile fatty acids were both analyzed by FID gas chromatography.

rumen fluid culture [3] = experiment: Methane production measurement system using rumen culture (Example 2); conditions: for methane amount (mean ± SD): 39° C., 17 hours
Description: Cashew nut shell liquid (CNSL) cold-pressed and extracted from cashew nut shells was obtained. For culture inoculum, rumen fluids (filtrates through quadruple gauzes) collected orally from Holstein milking cows 90 days or longer after calving were used. 4 mL of the rumen fluid and 6 mL of artificial saliva (McDougal's artificial saliva) were added and the mixture was used for culturing. […] CNSL was dissolved in ethanol and added to a Hungate tube such that it had any concentration in the solution. […] To equalize the effect of ethanol, only ethanol was added to a no-addition (control) area. Thereafter, the resulting products were left for several hours to vaporize ethanol, to which 50 mg of corn starch, 75 mg of concentrate feed powder, and 75 mg of timothy hay powder were added as culture substrates. To these test tubes, a total of 10 ml of diluted rumen fluid and artificial saliva in the above mixture ratio was added, and the tubes were incubated anaerobically in an incubator (39° C., 17 hours) with butyl rubber caps and plastic screw caps provided while nitrogen gas was blown into the head space. Each culturing was performed in triplicate. The concentrations of methane and acetic acid in volatile fatty acids were both analyzed by FID gas chromatography.

[4] = 1000 mg/L alone, ▴ = reduction, ^ = increase

`O=C(O)CC(O)C(=O)O` (racemic) [DL-malic acid] was tested, and the “acetate amount % vs cont” value (rumen fluid culture [1]; 500 mg/L alone) was 123%, the “acetate amount (mean ± SD)” value (rumen fluid culture [1]; 500 mg/L alone) was 4.18 ± 0.11 g/L and the “methane amount (mean ± SD)” value (rumen fluid culture [1]; 500 mg/L alone) was 6.22 ± 0.93 mL/tube. The “acetate amount % vs cont” value (rumen fluid culture [1]; 1000 mg/L alone) was 111%, the “acetate amount (mean ± SD)” value (rumen fluid culture [1]; 1000 mg/L alone) was 3.76 ± 0.11 g/L and the “methane amount (mean ± SD)” value (rumen fluid culture [1]; 1000 mg/L alone) was 5.47 ± 0.01 mL/tube. For the same compound, the “methane amount % reduction vs cont” value (rumen fluid culture [1]; [4]) was “▴0%”, the “improvement in the methane reduction rate” value (rumen fluid culture [1]; CNSL and garlic powder in combination, 500 to 1,000 mg/L DL-malic acid alone, 100 to 200 mg/L garlic powder) was “did not show significant improvement” and the “acetate amount % vs cont” value (rumen fluid culture [2]; 500 mg/L alone) was 114%. For the same compound, the “acetate amount (mean ± SD)” value (rumen fluid culture [2]; 500 mg/L alone) was 4.18 ± 0.07 g/L, the “methane amount (mean ± SD)” value (rumen fluid culture [2]; 500 mg/L alone) was 6.13 ± 0.92 mL/tube and the “acetate amount % vs cont” value (rumen fluid culture [2]; 1000 mg/L alone) was 102%. The “acetate amount (mean ± SD)” value (rumen fluid culture [2]; 1000 mg/L alone) was 3.76 ± 0.27 g/L, the “methane amount (mean ± SD)” value (rumen fluid culture [2]; 1000 mg/L alone) was 6.13 ± 0.00 mL/tube and the “acetate amount % vs cont” value (rumen fluid culture [2]; 2000 mg/L alone) was 105%. For the same compound, the “acetate amount (mean ± SD)” value (rumen fluid culture [2]; 2000 mg/L alone) was 3.85 ± 0.38 g/L, the “methane amount (mean ± SD)” value (rumen fluid culture [2]; 2000 mg/L alone) was 5.95 ± 0.70 mL/tube and the “methane amount % reduction vs cont” value (rumen fluid culture [2]; 2000 mg/L alone) was “▴3%”.

With `O=C(O)CC(O)(CC(=O)O)C(=O)O` [citric acid] the “acetate amount % vs cont” value (rumen fluid culture [3]; 500 mg/L alone) was 115%, the “acetate amount (mean ± SD)” value (rumen fluid culture [3]; 500 mg/L alone) was 4.25 ± 0.16 g/L and the “methane amount (mean ± SD)” value (rumen fluid culture [3]; 500 mg/L alone) was 5.12 ± 0.67 mL/tube. For the same compound, the “acetate amount % vs cont” value (rumen fluid culture [3]; 1000 mg/L alone) was 119%, the “acetate amount (mean ± SD)” value (rumen fluid culture [3]; 1000 mg/L alone) was 4.42 ± 0.14 g/L and the “methane amount (mean ± SD)” value (rumen fluid culture [3]; 1000 mg/L alone) was 3.77 ± 1.64 mL/tube. The “methane amount % reduction vs cont” value (rumen fluid culture [3]; [4]) was “▴21%”, the “acetate amount % vs cont” value (rumen fluid culture [2]; 500 mg/L alone) was 99% and the “acetate amount (mean ± SD)” value (rumen fluid culture [2]; 500 mg/L alone) was 3.64 ± 0.70 g/L. The “methane amount (mean ± SD)” value (rumen fluid culture [2]; 500 mg/L alone) was 6.53 ± 0.43 mL/tube, the “acetate amount % vs cont” value (rumen fluid culture [2]; 1000 mg/L alone) was 102% and the “acetate amount (mean ± SD)” value (rumen fluid culture [2]; 1000 mg/L alone) was 3.76 ± 1.10 g/L. For the same compound, the “methane amount (mean ± SD)” value (rumen fluid culture [2]; 1000 mg/L alone) was 6.41 ± 1.49 mL/tube, the “acetate amount % vs cont” value (rumen fluid culture [2]; 2000 mg/L alone) was 128% and the “acetate amount (mean ± SD)” value (rumen fluid culture [2]; 2000 mg/L alone) was 4.71 ± 0.15 g/L. The “methane amount (mean ± SD)” value (rumen fluid culture [2]; 2000 mg/L alone) was 5.45 ± 2.09 mL/tube and the “methane amount % reduction vs cont” value (rumen fluid culture [2]; 2000 mg/L alone) was “▴11%”.

In the case of `O=C(O)/C=C/C(=O)O` [fumaric acid], the “acetate amount % vs cont” value (rumen fluid culture [1]; 500 mg/L alone) is reported as 114%, the “acetate amount (mean ± SD)” value (rumen fluid culture [1]; 500 mg/L alone) is reported as 3.86 ± 0.12 g/L and the “methane amount (mean ± SD)” value (rumen fluid culture [1]; 500 mg/L alone) is reported as 5.94 ± 0.01 mL/tube.

For `CC(=O)C(=O)O` [pyruvic acid], the “acetate amount % vs cont” value (rumen fluid culture [3]; 500 mg/L alone) was 109%, the “acetate amount (mean ± SD)” value (rumen fluid culture [3]; 500 mg/L alone) was 4.04 ± 0.31 g/L and the “methane amount (mean ± SD)” value (rumen fluid culture [3]; 500 mg/L alone) was 5.58 ± 1.26 mL/tube. The “acetate amount % vs cont” value (rumen fluid culture [3]; 1000 mg/L alone) was 118%, the “acetate amount (mean ± SD)” value (rumen fluid culture [3]; 1000 mg/L alone) was 4.36 ± 0.02 g/L and the “methane amount (mean ± SD)” value (rumen fluid culture [3]; 1000 mg/L alone) was 5.39 ± 0.04 mL/tube.

`O=C(O)CCC(=O)O` [succinic acid] was tested, and the “acetate amount % vs cont” value (rumen fluid culture [3]; 500 mg/L alone) was 115%, the “acetate amount (mean ± SD)” value (rumen fluid culture [3]; 500 mg/L alone) was 4.26 ± 0.42 g/L and the “methane amount (mean ± SD)” value (rumen fluid culture [3]; 500 mg/L alone) was 5.28 ± 1.76 mL/tube. The “acetate amount % vs cont” value (rumen fluid culture [3]; 1000 mg/L alone) was 106%, the “acetate amount (mean ± SD)” value (rumen fluid culture [3]; 1000 mg/L alone) was 3.91 ± 0.58 g/L and the “methane amount (mean ± SD)” value (rumen fluid culture [3]; 1000 mg/L alone) was 6.24 ± 0.83 mL/tube.
